# Measured values taken from PMC4216204 (Journal of Medicinal Chemistry, 2014).
# Tests used:
# [1] = tested on: CRL-2351 breast cancer cells; test: Sulforhodamine B; type: cell-based; conditions: Homo sapiens, 120 h, read-out: SRB assay IC50 CRL-2351
# xenograft tumor = conditions: mouse model of human cancer; cited from earlier work
# AML progenitors = conditions: ref 23 (Tamburini et al.); cited from earlier work
SMILES,IC50 [1],inhibition of xenograft tumor growth (xenograft tumor),clonogenic growth of AML progenitors (AML progenitors)
"COc1cc2c(cc1OC)-c1nc(N/N=C(\Cc3ccccc3[N+](=O)[O-])C(=O)O)sc1CO2 [(E)-46a, 2-(2-(7,8-Dimethoxy-4H-chromeno[4,3-d]thiazol-2-yl)hydrazono)-3-(2-nitrophenyl)propanoic Acid]",> 20 µM,,
"COc1ccc2c(c1OC)OCc1sc(N/N=C(\Cc3ccccc3[N+](=O)[O-])C(=O)O)nc1-2 [(E)-46b, 2-(2-(6,7-Dimethoxy-4H-chromeno[4,3-d]thiazol-2-yl)hydrazono)-3-(2-nitrophenyl)propanoic Acid]",> 20 µM,,
"COc1cc2c(cc1OC)-c1nc(N/N=C(\Cc3ccccc3[N+](=O)[O-])C(=O)O)sc1CC2 [(E)-46c, 2-(2-(7,8-Dimethoxy-4,5-dihydronaphtho[1,2-d]thiazol-2-yl)hydrazono)-3-(2-nitrophenyl)propanoic Acid]",> 20 µM,,
"COc1cc2c(cc1OC)-c1nc(N/N=C(/Cc3ccccc3[N+](=O)[O-])C(=O)O)sc1CO2 [(Z)-46a, 2-(2-(7,8-Dimethoxy-4H-chromeno[4,3-d]thiazol-2-yl)hydrazono)-3-(2-nitrophenyl)propanoic Acid]",> 20 µM,,
"COc1ccc2c(c1OC)OCc1sc(N/N=C(/Cc3ccccc3[N+](=O)[O-])C(=O)O)nc1-2 [(Z)-46b, 2-(2-(6,7-Dimethoxy-4H-chromeno[4,3-d]thiazol-2-yl)hydrazono)-3-(2-nitrophenyl)propanoic Acid]",> 20 µM,,
"COc1cc2c(cc1OC)-c1nc(N/N=C(/Cc3ccccc3[N+](=O)[O-])C(=O)O)sc1CC2 [(Z)-46c, 2-(2-(7,8-Dimethoxy-4,5-dihydronaphtho[1,2-d]thiazol-2-yl)hydrazono)-3-(2-nitrophenyl)propanoic Acid]",> 20 µM,,
"O=C(O)C(Cc1ccccc1[N+](=O)[O-])=NNc1nc(-c2ccc(Cl)c(Cl)c2)cs1 [compound 1, (2-(2-(4-(3,4-dichlorophenyl)thiazol-2-yl)hydrazono)-3-(2-nitrophenyl)propanoic acid)]",,effectively inhibits xenograft tumor growth,dramatically reduces the clonogenic growth of AML progenitors
